In PMC3734253, “A Novel Color Change Mechanism for Breast Cancer Biomarker Detection: Naphthoquinones as Specific Ligands of Human Arylamine N-Acetyltransferase 1” (PLoS ONE, 2013):

What was measured:
hNAT2 [1] = molecular target: T1, hNAT2 (Homo sapiens, UniProt P11245); assay: Visible spectrum of compound in presence of hNAT2; assay type: binding; settings: with hNAT2
T1 sequence (P11245 1-290): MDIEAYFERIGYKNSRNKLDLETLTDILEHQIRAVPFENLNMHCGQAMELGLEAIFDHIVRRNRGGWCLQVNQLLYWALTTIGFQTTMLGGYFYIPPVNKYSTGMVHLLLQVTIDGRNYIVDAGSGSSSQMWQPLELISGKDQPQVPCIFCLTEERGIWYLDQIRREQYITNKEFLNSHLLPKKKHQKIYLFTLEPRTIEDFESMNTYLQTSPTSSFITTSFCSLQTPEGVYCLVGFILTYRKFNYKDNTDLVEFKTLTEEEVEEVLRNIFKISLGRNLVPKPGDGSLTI
Description: (§1) Visible spectra of each compound were recorded with a U-2001 spectrophotometer (Hitachi) using 1 mL plastic cells of 1 cm path-length (FisherBrand) or 50 μL UVettes® (Eppendorf). Concentrations of inhibitors and protein used are given in the appropriate figure legends. All spectra were blank-corrected.

[2] = molecular target: T2, hNAT1 (human arylamine N-acetyltransferase 1) (Homo sapiens, UniProt P18440); assay: AcCoA hydrolysis assay, inhibition of hNAT1; assay type: biochemical; settings: for IC50: pABA 500 μM, AcCoA 400 μM, pH 8.0, 5% DMSO
T2 construct: made in house
T2 sequence (P18440 1-290): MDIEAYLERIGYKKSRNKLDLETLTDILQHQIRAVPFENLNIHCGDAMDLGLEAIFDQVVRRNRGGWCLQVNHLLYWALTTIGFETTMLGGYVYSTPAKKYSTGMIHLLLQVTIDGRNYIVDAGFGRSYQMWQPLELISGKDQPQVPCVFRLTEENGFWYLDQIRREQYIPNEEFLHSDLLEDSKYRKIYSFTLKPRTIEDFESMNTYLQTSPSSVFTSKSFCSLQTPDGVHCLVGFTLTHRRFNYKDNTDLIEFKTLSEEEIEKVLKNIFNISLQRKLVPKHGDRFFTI
Description: (§2) NAT activity was determined as previously described,[23]; a full procedure is outlined in the (File S1).
(§3) NAT activity was determined by AcCoA hydrolysis assays. The NAT isoform (100 ng) was pre-incubated with para-amino benzoic acid (500 μM) in the assay buffer (5% DMSO/95% 20mM aq Tris.HCl, pH 8.0) for 5 min. at 37 °C in a 96-well plate (Corning). Pre-warmed AcCoA (400 μM, 37 °C) in assay buffer was added to start the reaction (final volume of 100 μL), which was allowed to proceed at 37 °C. Simultaneous quenching and color development was achieved by addition of 25 μL DTNB solution (5 mM DTNB in 100 mM aq Tris.HCl, 6.4 M guanidine.HCl, pH 7.5). The absorbance was immediately read at 405 nm using a plate reader (Tecan Sunrise). The rate of reaction was determined by reference to a standard curve and controls with buffer alone were carried out. For detection of inhibition, the inhibitors tested were dissolved in DMSO and the final percentage of DMSO in the assay was 5% (v/v). […] A dose-response function was used as a model of regression for the data and the curves were estimated by the method of the least squares analysis.

hNAT1 = molecular target: T3, hNAT1 (Homo sapiens, UniProt P18440); assay: Visible spectrum of compound in presence of hNAT1; assay type: binding; settings: with hNAT1, 20 mM Tris.HCl pH 8
T3 construct: made in house
T3 sequence (P18440 1-290): T2 sequence (P18440 1-290)
Description: as §1
(§4) 15 μM compound 4 was prepared using different conditions: 20 mM aq Tris.HCl, pH 8, 5% DMSO (v/v); 80 mM aq NaOH, pH 13.75, 5% DMSO (v/v); with hNAT1 (30 μM) in 20 mM aq Tris.HCl, pH 8, 5% DMSO (v/v); with mNat2 (30 μM) 20 mM aq Tris.HCl, pH 8, 5% DMSO (v/v). Wavelength scans from 800 to 350 nm were recorded against the respective blanks containing no compound 4.
as §4, with “5” for “4”, “5.” for “4.”

mNat2 [3] = molecular target: T4, mNat2 (Mus musculus, UniProt P50295); assay: AcCoA hydrolysis assay, inhibition of mNat2 (wild type); assay type: biochemical; settings: for IC50: mNat2_WT, pABA 500 μM, AcCoA 400 μM, pH 8.0, 5% DMSO
T4 construct: hexa-histidine tag (cleaved yes); made in house; host or cells: E. coli Rosetta(DE3)pLysS
T4 sequence (P50295 1-290): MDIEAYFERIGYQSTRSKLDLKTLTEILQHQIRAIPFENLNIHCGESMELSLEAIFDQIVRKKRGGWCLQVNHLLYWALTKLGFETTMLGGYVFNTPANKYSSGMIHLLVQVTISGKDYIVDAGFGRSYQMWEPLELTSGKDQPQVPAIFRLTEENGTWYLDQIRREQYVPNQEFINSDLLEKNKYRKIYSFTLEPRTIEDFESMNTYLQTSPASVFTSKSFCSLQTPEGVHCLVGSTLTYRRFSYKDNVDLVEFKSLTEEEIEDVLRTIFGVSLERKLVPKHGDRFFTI

hNAT2 [4] = molecular target: T1, hNAT2; assay: AcCoA hydrolysis assay, inhibition of hNAT2; assay type: biochemical; settings: for enzyme activity retained: hNAT2, inhibitor concentration 30 µM
Description: as §2, §3

mNat1 [5] = molecular target: T5, mNat1 (Mus musculus, UniProt P50294); assay: AcCoA hydrolysis assay, inhibition of mNat1; assay type: biochemical; settings: enzyme mNat1, read-out: % Inhibition at 30 μM of 1
T5 construct: hexa-histidine tag (cleaved yes); made in house; host or cells: E. coli Rosetta(DE3)pLysS
T5 sequence (P50294 1-290): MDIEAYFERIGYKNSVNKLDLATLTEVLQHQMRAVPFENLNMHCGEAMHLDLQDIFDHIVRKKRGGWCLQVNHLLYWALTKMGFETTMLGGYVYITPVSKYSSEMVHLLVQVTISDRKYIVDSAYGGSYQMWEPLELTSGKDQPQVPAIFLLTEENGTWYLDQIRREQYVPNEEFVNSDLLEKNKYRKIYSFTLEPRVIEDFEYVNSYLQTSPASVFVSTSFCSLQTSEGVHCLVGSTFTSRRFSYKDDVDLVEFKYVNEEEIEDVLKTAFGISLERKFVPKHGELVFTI
Description: as §2, §3

mNat1 [6] = molecular target: T5, mNat1; assay: Visible spectrum of compound in presence of mNat1; assay type: binding; settings: with mNat1
Description: as §1

mNat2 [7] = molecular target: T4, mNat2; assay: Visible spectrum of compound in presence of mNat2; assay type: binding; settings: with mNat2, 20 mM Tris.HCl pH 8
Description: as §1, §4
as §4, with “5” for “4”, “5.” for “4.”

[8] = Acid-base (pH) titration by visible spectra; assay type: physicochemical; settings: panel of buffered solutions at diverse pHs with 5% DMSO; 5% DMSO/95% H2O
Description: 5 μL of 1 in DMSO (final concentration 0.1 mM) was added to 95 μL of a panel of solutions buffered at diverse pHs in a flat-bottomed 96-well plate (Corning). Visible spectra of the samples were recorded from 800 to 350 nm on the FLUOstar Omega plate reader (BMG Labtech), then the λmax were determined for all spectra and plotted against pH. A sigmoidal titration curve was fitted using GraphPad®.

[9] = Solubility under NMR conditions for active protein; assay type: physicochemical; settings: 5% DMSO-d6/95% D2O, for 15N-NMR

IC50 [2] [µM] | λmax in presence of hNAT1 (hNAT1) [nm] | IC50 (mNat2 [3]) [µM] | λmax in presence of mNat2 (mNat2 [7]) [nm] | enzyme activity retained (hNAT2 [4]) | Structure (SMILES) | also measured
5.3 | 585 | 1.9 | 625 | – | Cc1cc(C)cc(NC2=C(NS(=O)(=O)c3ccccc3)C(=O)c3ccccc3C2=O)c1 [compound 1, N-(3-(3’’,5’’-Dimethylphenylamino)-1,4-dioxo-1,4-dihydronaphthalen-2-yl)benzenesulfonamide] | λmax in presence of hNAT2 (hNAT2 [1]): 498 nm; inhibition at 30 µM ([2]; 30 μM, enzyme hNAT1): 93.3 ± 0.9%; inhibition at 30 µM (mNat2 [3]; 30 μM, enzyme mNat2, read-out: % Inhibition at 30 μM of 1): 92.4 ± 4.4%; Ki (mNat2 [3]; competitive towards pABA (25-250 µM), AcCoA 400 µM, 9 ng pure recombinant mNat2, Dixon plot, read-out: Ki (app.)): 0.42 µM; inhibition at 30 µM (hNAT2 [4]; 30 μM, enzyme hNAT2, read-out: % Inhibition at 30 μM of 1): 10.6 ± 2%; inhibition at 30 µM (mNat1 [5]): 37.6 ± 1.6%; λmax in presence of mNat1 (mNat1 [6]): 498 nm; pKa [8]: ~9.2
– | – | – | – | – | Cc1cc(C)cc(NC2=C([15NH]S(=O)(=O)c3ccccc3)C(=O)c3ccccc3C2=O)c1 [compound 2, N-(3-(3’’,5’’-Dimethylphenylamino)-1,4-dioxo-1,4-dihydronaphthalen-2-yl)^15N-benzenesulfonamide] | solubility [9]: insufficiently soluble
– | 476 | – | 490 | more than 90% | Cc1cc(C)cc(NC2=C(N(C)S(=O)(=O)c3ccccc3)C(=O)c3ccccc3C2=O)c1 [compound 3, N-(3-(3’’,5’’-Dimethylphenylamino)-1,4-dioxo-1,4-dihydronaphthalen-2-yl)-N-methylbenzenesulfonamide] | –
3.6 | – | 14.6 | 548 | more than 90% | COS(=O)(=NC1=C(Nc2cc(C)cc(C)c2)C(=O)c2ccccc2C1=O)c1ccccc1 (stereo not shown) [compound 4, Methyl-N-3-(3’’,5’’-dimethylphenylamino)-1,4-dioxo-1,4-dihydronaphthalen-2-ylbenzenesulfonimidate] | melting point: 71 to 74 °C
93 | 492 | > 150 | 492 | – | Cc1cc(C)cc(NC2=C(OS(=O)(=O)c3ccccc3)C(=O)c3ccccc3C2=O)c1 [compound 5, 3-((3’’,5’’-Dimethylphenyl)amino)-1,4-dioxo-1,4-dihydronaphthalen-2-ylbenzenesulfonate] | –
